Entries after “also recorded” stand apart in the source; their conditions may differ.
Experiments:
LNCaP cells = test: Cell proliferation assay, viable cells counted by trypan blue exclusion; format: cell-based, human; conditions: charcoal stripped media, 36 hrs, read-out: IC50, inhibition of cell growth
Experimental: (§1) FIGS. 5A and 5B show cell proliferation assay. (FIG. 5A) LNCaP and (FIG. 5B) VCaP cells were grown in charcoal stripped media and treated with 1, 2.5, 5 and 10 uM of inhibitors (36 hrs) and number of viable cells were counted by trypan blue exclusion assay
(§2) Applicant also assessed ability of the new Ack1 inhibitors to suppress proliferation of prostate cancer cell lines. […] Overall, it appears that ACK I is needed for androgen-independent growth of prostate cancer cells.

VCaP cells = test: as above; format: cell-based, human; conditions: androgen-independent VCaP cells, charcoal stripped media, 36 hrs; read-out: IC50, inhibition of cell growth
Experimental: as §1, §2

[1] = test system: histone H3 Tyr99-phosphorylation (ACK1); test: Histone H3 Tyr99-phosphorylation in JAR cells (immunoblotting); format: cell-based, human; conditions: EGF+AIM-100
Experimental: FIGS. 5A-5D show ACK1 deposits pY99-H3 epigenetic marks in SLC6A4 promoter and intron 2. (FIG. 5A) Lysates prepared from JAR cells treated with EGF ligand were subjected to immunoblotting with indicated antibodies. (FIG. 5B) Lysates prepared from JAR cells treated with EGF or AIM-100 were subjected to immunoblotting with indicated antibodies. (FIG. 5C) Total RNA was prepared from JAR cells untreated or treated with EGF ligand followed by quantitative RT-PCR using SLC6A4 and actin primers. The ratio of SLC6A4 to actin is shown. (FIG. 5D) JAR cells were treated with EGF ligand and ChIP was performed using pY99-H3 antibodies followed by quantitative PCR using primers corresponding to intron 2 (VNTR).
JAR cells are human placenta-derived epithelial cells that express SLC6A4 or SERT. Applicant first assessed presence of ACK1 signaling in JAR cells by treating these cells with EGF ligand. […] ACK1 activation was also reflected in histone H3 Tyr99-phosphorylation (FIG. SA, 2nd panel).
To validate critical role of ACK1 in histone H3 Tyr99-phosphoryation, JAR cells were treated with EGF or EGF+AIM-100.

[2] = test system: histone H3 Tyr99-phosphorylation (ACK1); test: Histone H3 Tyr99-phosphorylation in HEK293 cells (pY99-H3 immunoprecipitation / H3 immunoblot); format: cell-based; conditions: HEK293 cells
Experimental: FIGS. 3A-3E show Ack1 phosphoryltes H3 at Tyr99 residue. […] (FIG. 3B) HEK293 cells co-expressing Myc-tagged Ack1 (WT) or KD mutant ACK1 and FLAG-tagged H3 or Y99F mutant […] were serum-starved (24h) and lysates were immunoprecipitated with pY99-H3 antibodies followed by immunoblotting with FLAG antibody (top panel). (FIG. 3C) HEK293 cells were treated with EGF ligand for indicated time points. Equal amounts of lysates were immunoprecipitated pY99-H3 antibodies followed by with immunoblotting with H3 antibody (top panel). (FIG. 3D) HEK293 cells were treated with ACK1 inhibitor, AIM-100 (5 uM overnight) and/or EGF ligand 20 min. Equal amounts of lysates were immunoprecipitated pY99-H3 antibodies followed by with immunoblotting with H3 antibody (top panel). […] (FIG. 3E) HEK293 cells were treated with increasing concentrations of AIM-100 (1, 2, 3 and 5 μM). Equal amounts of lysates were immunoprecipitated pY99-H3 antibodies followed by with immunoblotting with H3 antibody (top panel).
The Tyrosine99 or Y99 site in H3 protein is evolutionarily conserved (FIG. 3A). To examine whether H3 is ACK1 kinase substrate, HEK293 cells were co-transfected with HA-tagged ACK1 and FLAG-tagged H3 or FLAG-tagged Y99F mutant H3 expressing constructs. ACK I specifically phosphorylated H3 protein, but not the Y99F mutant protein (FIG. 3B). […]

AR protein levels = AR protein levels in androgen deprived prostate cancer cells (immunoblotting); format: cell-based, human; conditions: androgen deprived LNCaP and VCaP cells, 2.5, 5 and 10 uM
Experimental: (FIG. 6A) Androgen starved LAPC4 cells were treated with DHT (10 nM, 16 Hrs), AIM-100, DZI-067, Enzalutamide or PLX4032 (7 uM, 36 Hr) and AR, pACK1 and Actin levels were determined by immunoblotting (IB). The relative level of AR is shown below. (FIG. 6B) Androgen deprived LNCaP and VCaP cell were untreated or treated with 2.5, 5 and 10 uM of AIM-100 and lysates were immunoblotted. The quantitation of AR expression is shown. (FIG. 6C) Androgen deprived LNCaP and VCaP cell were untreated or treated with 2.5, 5 and 10 uM of DZI-067 and lysates were immunoblotted. The quantitation of AR expression is shown. (FIG. 6D) LNCaP cells were transfected with control and Ack1 siRNAs followed by immunoblotting. (FIG. 6E) LNCaP cells treated with AIM-100 (7 uM, 16 hr) or MG 132 (10 uM, 6 hr) were immunoblotted with AR antibodies. […]
AR has been known to interact with an ubiquitin E3 ligase, RNF6, causing AR ubiquitination, which in turn promoted AR transcriptional activity (Xu, K. et al. (2009) Cancer Cell 15(4):270-282). To determine whether post-translational modification has role to play in suppression of AR levels upon Ack1 kinase inhibition, LNCaP cells were treated with proteosomal inhibitor, MG-132 and AR levels were measured in presence or absence of AIM-100.

SMILES: c1ccc(-c2oc3ncnc(NC[C@@H]4CCCO4)c3c2-c2ccccc2)cc1 [AIM-100]
- IC50 (LNCaP cells): 7 µM
- IC50 (VCaP cells): 4 µM
- histone H3 Tyr99-phosphorylation [1]: almost complete loss of histone phosphorylation
- concentration resulting in complete loss of pY99-H3 ([2]; increasing concentrations of inhibitor): 0.5 μM
- histone H3 Tyr99-phosphorylation ([2]; inhibitor 5 uM overnight, EGF ligand 20 min): complete loss of histone H3 Tyr99-phosphorylation; also recorded: suppressed histone H3 Tyr99-phosphorylation
- AR protein levels (AR protein levels): concomitant decrease in AR protein levels
